# Measurements published in patent US8557816B2, “Aurora kinase modulators and method of use” (Amgen Inc., priority 2007, dated 2013).
# Where two headings read alike, the source gives them in different places.
# Key:
# [1] = biological target: T1, AuroraA-TPX2 (Homo sapiens, UniProt O14965); assay: AuroraA-TPX2 Homogeneous Time Resolved Fluorescent (HTRF) kinase assay; assay type: biochemical
# T1 construct: 20 μL of AuroraA-TPX2 KD GST for a final volume of about 41 μL; GST
# T1 sequence (O14965 133-383 limits assumed): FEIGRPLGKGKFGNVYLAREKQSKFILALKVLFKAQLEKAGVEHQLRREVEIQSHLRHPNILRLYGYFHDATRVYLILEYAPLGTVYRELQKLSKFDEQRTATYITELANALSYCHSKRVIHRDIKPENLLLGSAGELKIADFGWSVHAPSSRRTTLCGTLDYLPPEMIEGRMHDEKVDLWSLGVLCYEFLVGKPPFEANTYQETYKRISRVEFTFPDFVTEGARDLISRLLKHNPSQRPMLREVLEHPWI
# T1 sequence (Q9ULW0 1-43 partner limits assumed): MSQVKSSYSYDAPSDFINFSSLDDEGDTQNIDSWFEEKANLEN
# In short: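 HTRF read-out (Eu 615 nm to APC 655 nm) of phosphorylated biotin-PLK, detected with 0.02 nM europium anti-phosphoPLK antibody and 0.0005 mg/mL SA-APC after overnight equilibration.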
# [2] = system: HeLa cells; assay: HeLa cell 24 hr ploidy assay (DNA content); assay type: cell-based
# Description: HeLa Cell 24 hr Ploidy Assay Protocol
# The purpose of this assay is to evaluate the ability of selected individual compounds to induce Deoxyribonucleic acid (DNA) content (ploidy) in cells through failed cell division. Cell cycle analysis is a rapid and efficient way to evaluate the status of DNA content (ploidy) of a given cell. HeLa cells (1×10^4 HeLa cells/well) in 100 ul of media (MEM+10% FBS) were plated in 96-well plates (Packard View) and cultured for 24 hrs at 37° C. maintained in a 5% CO2 atmosphere. […] The compounds were serially diluted in DMSO (0.25% final concentration). The cells were fixed (3.7% Formaldehyde and 1% glutaraldehyde) and permeabilized (1×PBS with 1% BSA and 0.2% Triton X-100) in preparation for nuclear staining. The well plates were stained for 45 minutes at RT in the dark using Hoechest 33342 nuclear stain at 0.5 ug.ml (Stock of 10 mg/ml, Invitrogen, CA, Cat # H3570). The nuclear stain was removed by aspiration and the cells were washed with wash buffer. A Cellomics Array Scan Vti plate reader was used to acquire the DNA ploidy data of the cells using Cell Cycle bioapplication. Numbers for each of “valid cell count/well”, “% of 4N cells” and “% of >4Ncells” were calculated with the assistance of an Activity Base 5.1ca software and dose curves were generated using an XLFit software. With XLFit, final EC50 IP and EC50 transit values, as well as the Max and Min, were calculated for each curve.
# [3] = biological target: T2, AuroraB (Homo sapiens, UniProt Q96GD4); assay: AuroraB Homogeneous Time Resolved Fluorescent (HTRF) kinase assay; assay type: biochemical
# T2 construct: 20 μL of AuroraB FL H is for a final volume of 41 μL; His
# T2 sequence (Q96GD4 whole entry): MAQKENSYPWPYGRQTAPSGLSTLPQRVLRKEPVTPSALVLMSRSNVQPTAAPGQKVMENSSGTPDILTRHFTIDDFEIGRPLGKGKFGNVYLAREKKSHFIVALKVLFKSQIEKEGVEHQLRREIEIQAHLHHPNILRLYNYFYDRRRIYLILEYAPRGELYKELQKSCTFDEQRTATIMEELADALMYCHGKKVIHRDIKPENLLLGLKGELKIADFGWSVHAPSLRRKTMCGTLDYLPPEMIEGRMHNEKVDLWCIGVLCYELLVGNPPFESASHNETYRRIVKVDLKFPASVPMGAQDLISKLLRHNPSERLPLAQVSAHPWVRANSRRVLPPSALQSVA
# In short: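 Read-out is time-resolved FRET between europium anti-phospho-H3 antibody and streptavidin-APC, added in EDTA buffer to stop the reaction and equilibrated about 60 min (ex 320, em 615 and 655 nm). Preceding reaction: ~90 min, full-length enzyme, ATP, 0.1 μM biotin-Histone H3 substrate, Mg/Mn HEPES buffer pH 7.5.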
# [4] = system: HCT116 xenografts; assay: HCT116 xenograft model (human colon carcinoma), tumor growth inhibition; assay type: in vivo; conditions: p.o., athymic nude mice
# Description: Compounds of the present invention were evaluated in HCT116 xenografts, a human colon carcinoma model. […] These cells were grown as subcutaneous xenografts in female HSD (Harlan Sprague Dawley) athymic nude mice. Mice were implanted subcutaneously with 2×10^6 cells in matrigel on day 0. Treatment was initiated on day 10 with compounds of the invention at the indicated dosage p.o for 2 consecutive-days per week (intermittent schedule, such as 2 days on-5 days off) or 7-days (continuous schedule) per week, for a selected number of weeks. For example, in one study, animals were dosed with selected compound samples BID on an intermittent dosing paradigm of two days on and then 5 days off per week, for four weeks (four dosing cycles) at 15, 7.5, and 3.75 mg/kg. Tumor growth inhibition and body weights were measured throughout the study and compared to the vehicle control group. All groups were provided nutritional supplements on a daily basis throughout the study to maintain body weight. Terminal neutrophil counts were taken at the end of this study. Measures were made by ANOVA followed by Scheffe post hoc test using StatView software v5.0.1.
# 10 Flasks containing a total of 7.68×10^8 HCT116 tumor cells were harvested for tumor cell implantation. HCT 116 cells were re-suspended to a cell concentration of about 2×10^7 cells/ml in serum-free McCoys 5A media+50% matrigel. Cell viability was measured to be about 99.3%.
# Female Athymic Nude mice approximately 14 weeks of age (Harlan Sprague Dawley) were used for the experiment. Mice were housed five per filter-capped cage in sterile housing in an environmentally controlled room (temperature 23±2° C., relative humidity 50±20%) on a 12-hr light/dark cycle. […] On Day 9, tumor-bearing mice were measured and randomized into five groups (n=10). […] During the dosing period, mouse tumor volumes were measured with a digital caliper and weighed twice per week. Tumor volumes were calculated as follows: Tumor Volume (mm^3) [(W^2×L)/2] where width (W) is defined as the smaller of the 2 measurements and length (L) is defined as the larger of the 2 measurements.
# [5] = average, read-out: AurA_IC50_IP (uM Avg)
# [6] = 4N DNA content, average, read-out: 24h_4N Ploidy EC50_IP (uM Avg)
# [7] = average, read-out: AurB_IC50_IP (uM Avg)
Compound,"IC50 [1, 5]","IC50 [3, 7]",also measured
"4-(4,5-dimethylthiophen-2-yl)-N-(4-(7-methoxy-1,5-naphthyridin-4-yloxy)phenyl)phthalazin-1-amine [Example 34]",0.013 µM,0.01 µM,"EC50 [2, 6]: 0.062 µM"
4-(4-chlorophenyl)-N-(3-fluoro-4-(4-quinolinyloxy)phenyl)-1-phthalazinamine [compound 244],0.048 µM,0.003 µM,"EC50 [2, 6]: 0.04 µM"
"COc1cnc2c(Oc3ccc(Nc4nnc(-c5ccc(Cl)cc5)c5ccccc45)cc3)ccnc2c1 [Example 160, 4-(4-chlorophenyl)-N-(4-((7-(methyloxy)-1,5-naphthyridin-4-yl)oxy)phenyl)-1-phthalazinamine]",0.007 µM,0.003 µM,"inhibition of tumor growth ([4]; 3.75 mg/kg, 2-day dosing scheduling QD): ~86%"
"COc1cnc2c(Oc3ccc(Nc4nnc(-c5ccc6c(c5)OCO6)c5ccccc45)cc3)ccnc2c1 [Example 165, 4-(1,3-benzodioxol-5-yl)-N-(4-((7-(methyloxy)-1,5-naphthyridin-4-yl)oxy)phenyl)-1-phthalazinamine]",0.009 µM,0.007 µM,"inhibition of tumor growth ([4]; 2.5 mg/kg, 2-day dosing scheduling BID): ~63%"
"COc1cnc2c(Sc3ccc(Nc4nnc(-c5ccccc5)c5ccccc45)cc3)ccnc2c1 [Example 207, N-(4-((7-(methyloxy)-1,5-naphthyridin-4-yl)thio)phenyl)-4-phenyl-1-phthalazinamine]",0.06 µM,0.009 µM,"inhibition of tumor growth ([4]; 5.0 mg/kg, 2-day dosing scheduling QD): ~67%"
CCc1cc(-c2ccccc2OC)nnc1Nc1ccc(Sc2ccnc3cc(OC)cnc23)cc1 [compound 609],0.123 µM,0.02 µM,–
"(7-(4-(4-(4-methylthiophen-2-yl)phthalazin-1-ylamino)phenylthio)thieno[3,2-b]pyridin-2-yl)(morpholino)methanone [compound 296]",–,–,"IC50 ([1]; given as class symbol, read-out: AurA_IC50_IP (class symbol)): < 0.1 µM; EC50 ([2]; given as class symbol, read-out: 24h_4N Ploidy EC50_IP (class symbol)): < 0.1 µM; IC50 ([3]; given as class symbol, read-out: AurB_IC50_IP (class symbol)): < 0.1 µM"
"N-(5-(7-methoxy-1,5-naphthyridin-4-yloxy)pyridin-2-yl)-4-phenylphthalazin-1-amine [Example 54]",0.176 µM,0.02 µM,"EC50 [2, 6]: 0.028 µM"

# More lines, main results first:
"IC50 [1, 5]","IC50 [3, 7]",Compound,also measured
0.047 µM,0.033 µM,Clc1ccc(-c2nnc(Nc3ccc(Oc4ccnc5cc(OCc6ccccc6)cnc45)cc3)c3ccccc23)cc1 [compound 610],–
> 25 µM,0.243 µM,COc1ccc2c(C(C)c3ccc(Nc4nnc(-c5ccc(Cl)cc5)c5ccccc45)cc3)ccnc2c1 (stereo not shown) [compound 613],–
0.223 µM,0.046 µM,COc1ccc2c(C(O)c3ccc(Nc4nnc(-c5ccc(Cl)cc5)c5ccccc45)cc3)ccnc2c1 (stereo not shown) [compound 614],–
0.3 µM,0.039 µM,COc1ccc2c(C(=O)c3ccc(Nc4nnc(-c5ccc(Cl)cc5)c5ccccc45)cc3)ccnc2c1 [compound 615],–
